The values that follow come from PubChem BioAssay AID330 (DTP/NCI, 2004).

Structures are written as SMILES. “And” between values parts separate entries of the source, which are not always exact repeats. Identical values can stand only once. Toxic doses and inconclusive results are not listed.

For this assay, the system named is P388 leukemia ip, CD2F1 mice, survival T/C. The assay is described as follows: NCI In Vivo Anticancer Drug Screen. Data for tumor model P388 Leukemia (intraperitoneal) in CD2F1 (CDF1) mice. The settings on record: endpoint: median survival time, higher = longer survival. In a few lines:
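Mice carrying the transplanted tumor received test compound or vehicle. Survival was recorded in each group, and the value is the treated-group measurement divided by that of the vehicle-treated control group.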

The mark [1] stands for this setting: dose: 25.0 mg/kg/injection, schedule: Q01DX005 (ip), vehicle: Klucel (hydroxypropylcellulose) (HPC).
Setting [2] is: dose: 50.0 mg/kg/injection, schedule: Q01DX005 (ip), vehicle: Klucel (hydroxypropylcellulose) (HPC).
Setting [3] is: dose: 50.0 mg/kg/injection, schedule: Q01DX009 (ip), vehicle: Klucel (hydroxypropylcellulose) (HPC).
[4] abbreviates: dose: 100.0 mg/kg/injection, schedule: Q01DX005 (ip), vehicle: Klucel (hydroxypropylcellulose) (HPC).
[5] abbreviates: dose: 200.0 mg/kg/injection, schedule: Q01DX005 (ip), vehicle: Klucel (hydroxypropylcellulose) (HPC).
Where [6] appears, read: dose: 100.0 mg/kg/injection, schedule: Q01DX001 (ip), vehicle: Klucel (hydroxypropylcellulose) (HPC).
The mark [7] stands for this setting: dose: 200.0 mg/kg/injection, schedule: Q01DX001 (ip), vehicle: Klucel (hydroxypropylcellulose) (HPC).
The mark [8] stands for this setting: dose: 400.0 mg/kg/injection, schedule: Q01DX001 (ip), vehicle: Klucel (hydroxypropylcellulose) (HPC).
Where [9] appears, read: dose: 60.0 mg/kg/injection, schedule: Q01DX005 (ip), vehicle: Klucel (hydroxypropylcellulose) (HPC).
Where [10] appears, read: dose: 120.0 mg/kg/injection, schedule: Q01DX005 (ip), vehicle: Klucel (hydroxypropylcellulose) (HPC).
Setting [11] is: dose: 240.0 mg/kg/injection, schedule: Q01DX005 (ip), vehicle: Klucel (hydroxypropylcellulose) (HPC).
Setting [12] is: dose: 15.0 mg/kg/injection, schedule: Q01DX005 (ip), vehicle: saline with Tween-80.
[13] abbreviates: dose: 30.0 mg/kg/injection, schedule: Q01DX005 (ip), vehicle: saline with Tween-80.
Where [14] appears, read: dose: 60.0 mg/kg/injection, schedule: Q01DX005 (ip), vehicle: saline with Tween-80.
Where [15] appears, read: dose: 120.0 mg/kg/injection, schedule: Q01DX005 (ip), vehicle: saline with Tween-80.
The mark [16] stands for this setting: dose: 50.0 mg/kg/injection, schedule: Q01DX005 (ip), vehicle: saline with Tween-80.
Where [17] appears, read: dose: 100.0 mg/kg/injection, schedule: Q01DX005 (ip), vehicle: saline with Tween-80.
The mark [18] stands for this setting: dose: 200.0 mg/kg/injection, schedule: Q01DX005 (ip), vehicle: saline with Tween-80.
Setting [19] is: dose: 50.0 mg/kg/injection, schedule: Q01DX005 (ip), vehicle: saline.
The mark [20] stands for this setting: dose: 50.0 mg/kg/injection, schedule: Q01DX009 (ip), vehicle: saline.
The mark [21] stands for this setting: dose: 100.0 mg/kg/injection, schedule: Q01DX009 (ip), vehicle: saline.

For the compound `C(=C\c1cc2ccc(C3=NCCN3)cc2[nH]1)/c1ccc2cc(C3=NCCN3)[nH]c2c1`, the T/C (dose: 12.5 mg/kg/injection, schedule: Q01DX005 (ip), vehicle: Klucel (hydroxypropylcellulose) (HPC)) is 105 % of control; the T/C under setting [1] was 110 % of control; the T/C under setting [2] is 108 % of control and 110 % of control.

As to `C=CCn1c(NC2=C(Cl)C(=O)c3ccccc3C2=O)cc(=O)[nH]c1=O`, the T/C was 104 % of control (dose: 12.5 mg/kg/injection, schedule: Q01DX009 (ip), vehicle: Klucel (hydroxypropylcellulose) (HPC)); 98 % of control (dose: 25.0 mg/kg/injection, schedule: Q01DX009 (ip), vehicle: Klucel (hydroxypropylcellulose) (HPC)); 99 % of control and 98 % of control under setting [3].

In the case of `CC1CC2([Si](C)(C)C)C(=O)NC(=O)NC12` (stereo not given), the T/C was 112 % of control under setting [1], 103 % of control under setting [2], 112 % of control under setting [4] and 99 % of control under setting [5].

For `CN=C(N)N/N=C/c1c2ccccc2c(Cl)c2ccccc12`, where the note is “dose: 25.0 mg/kg/injection, schedule: Q04DX002 (ip), vehicle: saline with Tween-80”, the T/C was 114 % of control.

Take `COC(=O)C1CCC2C(C1)OC1(CC(OC(=O)/C=C\c3ccccc3)C(C)CO1)C2(O)CO` (stereo not given): the T/C by setting is: (dose: 5.0 mg/kg/injection, schedule: Q01DX009 (ip), vehicle: saline + alcohol) 98 % of control; (dose: 10.0 mg/kg/injection, schedule: Q01DX009 (ip), vehicle: saline + alcohol) 103 % of control; (dose: 20.0 mg/kg/injection, schedule: Q01DX009 (ip), vehicle: saline + alcohol) 105 % of control; (dose: 40.0 mg/kg/injection, schedule: Q01DX009 (ip), vehicle: saline + alcohol) 105 % of control.

Regarding `CC(C)N(C(C)C)C(C(=O)OCC(O)C(O)C(O)C(O)C(=O)O)N(C(C)C)C(C)C` (stereo not given), the T/C is, setting by setting: under setting [3], 113 % of control; (dose: 100.0 mg/kg/injection, schedule: Q01DX009 (ip), vehicle: Klucel (hydroxypropylcellulose) (HPC)) 97 % of control; (dose: 200.0 mg/kg/injection, schedule: Q01DX009 (ip), vehicle: Klucel (hydroxypropylcellulose) (HPC)) 111 % of control.

`CN(CC(O)C(O)CN(C)N=O)N=O` (stereo not given): the T/C is 88 % of control under setting [6], 94 % of control under setting [7] and 100 % of control under setting [8].

Turning to `CCCCCCCCCCCCCCCC(CCCC)CCCCCC` (stereo not given), the T/C is 100 % of control (dose: 50.0 mg/kg/injection, schedule: Q01DX001 (ip), vehicle: saline sonified); 100 % of control (dose: 100.0 mg/kg/injection, schedule: Q01DX001 (ip), vehicle: saline sonified); 100 % of control (dose: 200.0 mg/kg/injection, schedule: Q01DX001 (ip), vehicle: saline sonified).

Regarding `CC(C)C1N=C(c2ccccc2)OC1=O` (stereo not given), the T/C is, setting by setting: under setting [9], 92 % of control; under setting [10], 92 % of control; under setting [11], 100 % of control.

As to `COc1cc2c[n+]3c4c(cccc4c2cc1OC)CCC3`, the T/C runs as follows: (dose: 12.5 mg/kg/injection, schedule: Q01DX009 (ip), vehicle: water) 109 % of control; (dose: 25.0 mg/kg/injection, schedule: Q01DX009 (ip), vehicle: water) 108 % of control; (dose: 50.0 mg/kg/injection, schedule: Q01DX009 (ip), vehicle: water) 110 % of control.

For `CC(=O)OCc1cocc1COC(C)=O`, the T/C is, setting by setting: under setting [2], 100 % of control and 103 % of control; under setting [4], 107 % of control and 98 % of control; under setting [5], 117 % of control and 94 % of control.

Regarding `COc1ccc(-c2cn3c([nH]c(=O)c4ccccc43)c2C#N)cc1`, the T/C is, setting by setting: under setting [12], 86 % of control; under setting [13], 88 % of control; under setting [14], 86 % of control.

For `CCCCCCCCOCCS(=O)(=O)O`, the T/C under setting [14] was 95 % of control and the T/C under setting [15] was 92 % of control.

With `CC(=Nc1ccc(S(=O)(=O)c2ccc(N=C(C)N3CCCCC3)cc2)cc1)N1CCCCC1`, the T/C was 100 % of control under setting [16], 97 % of control under setting [17] and 88 % of control under setting [18].

Regarding `S=c1sc(-c2ccc(Cl)cc2)nn1CSc1nc2ccccc2[nH]1`, the T/C is, setting by setting: under setting [14], 100 % of control; under setting [15], 98 % of control; (dose: 240.0 mg/kg/injection, schedule: Q01DX005 (ip), vehicle: saline with Tween-80) 89 % of control.

Turning to `CC(=O)O[C@@H]1CCC2CCC1N2C` (stereo not given in full), the T/C by setting is: under setting [19], 97 % of control; (dose: 100.0 mg/kg/injection, schedule: Q01DX005 (ip), vehicle: saline) 95 % of control; (dose: 200.0 mg/kg/injection, schedule: Q01DX005 (ip), vehicle: saline) 95 % of control.

Consider `CCN=C(CC(=O)C12CC3CC(CC(C3)C1)C2)N(CC)CC`, for which the T/C by setting is: (dose: 12.5 mg/kg/injection, schedule: Q01DX009 (ip), vehicle: saline) 109 % of control; (dose: 25.0 mg/kg/injection, schedule: Q01DX009 (ip), vehicle: saline) 112 % of control; under setting [20], 100 % of control and 103 % of control.

As for `O=C(O)CCC(=O)NCCOC(=O)CCC(=O)O`, the T/C under setting [20] is 99 % of control; the T/C under setting [21] is 104 % of control; the T/C (dose: 200.0 mg/kg/injection, schedule: Q01DX009 (ip), vehicle: saline) is 106 % of control.

With `C[C@@H]1CC(=O)C[C@H]2CCCCN21`, the T/C is, setting by setting: (dose: 12.5 mg/kg/injection, schedule: Q01DX005 (ip), vehicle: saline) 102 % of control; (dose: 25.0 mg/kg/injection, schedule: Q01DX005 (ip), vehicle: saline) 103 % of control; under setting [19], 105 % of control.

For `Cc1cccc(NC(=O)Nc2ccc(F)cc2)n1`, the T/C was 101 % of control under setting [9], 96 % of control under setting [10] and 100 % of control under setting [11].

Turning to `Oc1ccc2c3c1OC1C(=NN=C4CCC5(O)C6Cc7ccc(O)c8c7C5(CCN6CC5CC5)C4O8)CCC4(O)C(C2)N(CC2CC2)CCC314` (stereo not given), the T/C reads like this: under setting [16], 91 % of control; under setting [17], 98 % of control; under setting [18], 99 % of control.

`CC(=O)N(C)N=Nc1ccc(C)cc1`: the T/C is 100 % of control and 121 % of control and 123 % of control under setting [20]; 100 % of control and 118 % of control and 121 % of control under setting [21].

Turning to `CCCCCCCCCCCCCCCC(=O)NCCO`, the T/C runs as follows: (dose: 33.0 mg/kg/injection, schedule: Q04DX003 (ip), vehicle: saline with Tween-80) 91 % of control; (dose: 75.0 mg/kg/injection, schedule: Q04DX003 (ip), vehicle: saline with Tween-80) 87 % of control.

`C/C(=N\Nc1ccccn1)c1ccccn1`: the T/C (dose: 6.25 mg/kg/injection, schedule: Q01DX005 (ip), vehicle: saline with Tween-80) is 104 % of control; the T/C (dose: 12.5 mg/kg/injection, schedule: Q01DX005 (ip), vehicle: saline with Tween-80) was 100 % of control; the T/C (dose: 25.0 mg/kg/injection, schedule: Q01DX005 (ip), vehicle: saline with Tween-80) was 101 % of control.

`CCC(=O)c1c(O)c2ccccc2oc1=O`: the T/C under setting [12] is 104 % of control, the T/C under setting [13] was 107 % of control and the T/C under setting [14] was 104 % of control.

As to `Cc1ccn2cc(CC(=O)O)nc2c1`, the T/C was 104 % of control under setting [6], 100 % of control under setting [7] and 96 % of control under setting [8].

As to `C[C@]12CC[C@@H]3c4ccc(O)cc4CC[C@H]3[C@@H]1CC[C@@H]2NCCCCCCO`, the T/C is, setting by setting: under setting [2], 92 % of control; under setting [4], 97 % of control.

In the case of `OCC[Se][Se]CCO`, the T/C is 103 % of control (dose: 1.25 mg/kg/injection, schedule: Q01DX009 (ip), vehicle: Klucel (hydroxypropylcellulose) (HPC)); 100 % of control (dose: 2.5 mg/kg/injection, schedule: Q01DX009 (ip), vehicle: Klucel (hydroxypropylcellulose) (HPC)); 103 % of control (dose: 5.0 mg/kg/injection, schedule: Q01DX009 (ip), vehicle: Klucel (hydroxypropylcellulose) (HPC)).
